The values below are quoted from earlier work in patent publication US20070149578A1, “Combination Therapy” (Pfizer, Inc., priority 2000, published 2007).

SMILES strings stand for the structures.

One data set relates to calcium channel. As to conditions: see International Patent Application Number PCT/EP94/02697.
Data set [1] deals with smooth muscle cell migration. As to conditions: see International Patent Application Number PCT/EP95/00847.

`CCOC(=O)C1=C(COCCN)NC(C)=C(C(=O)OC)[C@@H]1c1ccccc1Cl` (single isomer, unassigned) [S(−) isomer]: the “calcium channel blocking activity” value in the data set with calcium channel is given as “substantially confined to the S(−) isomer”.
In the case of `CCOC(=O)C1=C(COCCN)NC(C)=C(C(=O)OC)[C@H]1c1ccccc1Cl` (single isomer, unassigned) [R(+) isomer], the “calcium channel blocking activity” value with calcium channel is listed as “little or no calcium channel blocking activity”. Further, the “inhibitor of smooth muscle cell migration” value in data set [1] is “potent inhibitor”.
